{"source": "patent US20070004660A1", "about": "“Synergistic Modulation of Flt3 Kinase Using Alkylquinolines and Alkylquinazolines” (priority 2005, published 2007)", "key": {"MV4-11 AML cells": {"system": "MV4-11 AML cells", "test": "Cell proliferation assay, single agents and FTI/FLT3 inhibitor combinations, MV4-11", "assay_type": "cell-based, human", "protocol": "Dose responses for the individual compounds alone were determined for each cell line using a standard 72-hour cell proliferation assay (see FIGS. 6.1-6.8). The standard chemotherapeutic agent Cytarabine was used as a control cytotoxic agent in all experiments. […] The FLT3 inhibitors, Compounds A, B, C, D, E, F G and H individually have good potency (sub-micromolar) for the inhibition of FLT3 driven proliferation (compared to the first line cytotoxic agent Cytarabine and Tipifarnib) in cells that depend on FLT3 for growth. Each of these chemically distinct compounds alone has potential for the treatment of disorders related to FLT3, such as FLT3 positive AML. […] The FLT3 inhibitors tested had no effect on THP-1 proliferation. […] (See FIGS. 10.1-10.8 and Tables 1-3, hereafter.)\nTo statistically evaluate the synergy of a FLT3 inhibitor and an FTI in FLT3 dependent cell lines, dosing combinations were evaluated by the method of Chou and Talalay. See Chou T C, Talalay P. (1984) “Quantitative analysis of dose-effect relationships: the combined effects of multiple drugs or enzyme inhibitors.” Adv Enzyme Regul. 22:27-55. […] Using this method, multiple FTI and FLT3 combinations were evaluated. […]\nCell proliferation assay for MV4-11, Baf3-ITD, Baf3-FLT3 and THP-1 cells. […] Total cell growth is quantified as the difference in luminescent counts (relative light units, RLU) of cell number at Day 0 compared to total cell number at Day 3 (72 hours of growth and/or compound treatment). One hundred percent inhibition of growth is defined as an RLU equivalent to the Day 0 reading. […]\nCombination Index Analysis. To determine growth inhibition synergy of a FTI and FLT3 inhibitor combination based on the method of Chou and Talalay (Chou and Talalay. See Chou T C, Talalay P. (1984) “Quantitative analysis of dose-effect relationships: the combined effects of multiple drugs or enzyme inhibitors.” Adv Enzyme Regul. 22:27-55. ), fixed ratio combination dosing with isobolar statistical analysis was performed. […]"}, "MV4-11 cells": {"system": "MV4-11 cells", "test": "Annexin V staining (apoptosis) of MV4-11 cells", "assay_type": "cell-based, human", "details": "Tipifarnib and FLT3 inhibitor Compound A, fixed ratio 4:1, 48 hours", "protocol": "After the compound incubations, treated cells were harvested and stained with Annexin V-PE and 7-AAD using the Guava Nexin apoptosis kit according to the protocol in the Biological Activity Measurements section hereafter. Annexin V staining peaks at 60% because cells late in apoptosis begin to fall apart and are considered debris. […] Statistical analysis using the above described method of Chou and Talalay was also performed to determine the synergy of the combination. FIG. 11b depictes the isobolar analysis of the Tipifarnib and FLT3 inhibitor Compound A combination in inducing annexin V staining. […] The magnitude of the synergistic induction of apoptosis of MV4-11 cells by the combination of an FTI and a FLT3 inhibitor could not be predicted by those skilled in the art. […]\nAnnexin V Staining. To examine the apoptosis of the leukemic MV4-11 cell line, cells were treated with Tipifarnib and/or FLT3 inhibitor Compound A, and Annexin V binding to phosphotidylserine on the outer leaflet of the plasma membrane of apoptotic cells was monitored using the GuavaNexin assay reagent and the Guava personal flow cytometry system (Guava Technologies; Hayward, Calif.). […] All annexin positive cells were considered apoptotic and percent Annexin positive cells was calculated."}, "MV-4-11 tumor xenografts [1]": {"system": "MV-4-11 tumor xenografts", "test": "In vivo combination study, FLT3 inhibitor Compound B and Tipifarnib, MV-4-11 xenografts", "protocol": "The effect of combination treatment of the FLT3 Inhibitor FLT3 inhibitors of Formula I′ and Tipifarnib (Zarnestra™) on the growth of MV-4-11 human AML tumor xenografts in nude mice was tested using FLT3 inhibitor Compound B. The in vivo study was designed to extend the in vitro observations to evaluate the potential for a synergistic anti-tumor effect of FLT3 inhibitor Compound B administered orally together with Tipifarnib to nude mice bearing established MV-4-11 tumor xenografts."}, "MV-4-11 tumor xenografts [2]": {"system": "MV-4-11 tumor xenografts", "excerpt": "Dosing was continued for sixteen consecutive days.\nValues represent the mean (±sem) of 10 mice per treatment group."}}, "note": "Where two headings read alike, the source gives them in different places.", "data": [{"smiles": "Cn1cncc1C(N)(c1ccc(Cl)cc1)c1ccc2c(c1)c(-c1cccc(Cl)c1)cc(=O)n2C", "note": "(single isomer, unassigned; (+)) [Tipifarnib, (+)-6-[amino(4-chlorophenyl)(1-methyl-1H-imidazol-5-yl)methyl]-4-(3-chlorophenyl)-1-methyl-2(1H)-quinolinone]", "values": [{"measurement": "potency for inhibition of proliferation, single agent", "setting": "MV4-11 AML cells; 72-hour assay, cells that depend on FLT3 for growth (Tipifarnib: depending on the cell type)", "value": "high nanomolar to high picomolar range"}, {"measurement": "increase in potency of Tipifarnib", "setting": "MV4-11 AML cells; with single sub-IC50 dose of FLT3 inhibitor Compound A, 50 nM", "value": "more than 3 fold"}, {"measurement": "shift of EC50 for induction of annexin V staining by the combination", "setting": "MV4-11 cells", "value": "more than eight-fold"}, {"measurement": "effect on tumor volume compared to control", "setting": "MV-4-11 tumor xenografts [1]; 50 mg/kg po alone, Day 9", "value": "not significantly reduced"}, {"measurement": "overt toxicity", "setting": "MV-4-11 tumor xenografts [1]; 9-day treatment, either agent alone or in combination", "value": "No overt toxicity"}, {"measurement": "effect on tumor growth", "setting": "MV-4-11 tumor xenografts [2]; 50 mg/kg po single agent, 16 days", "value": "ineffective"}, {"measurement": "overt toxicity", "setting": "MV-4-11 tumor xenografts [2]; 16-day treatment, either agent alone or in combination", "value": "No overt toxicity"}]}]}
